These results are taken from paper PMC3722775, “1-Aryl-3-[4-(thieno[3,2-d]pyrimidin-4-yloxy)phenyl]ureas as VEGFR-2 Tyrosine Kinase Inhibitors: Synthesis, Biological Evaluation, and Molecular Modelling Studies” (BioMed Research International, 2013).

Molecules are shown by their SMILES.

One data set concerns the target T1, VEGFR-2 (Homo sapiens, UniProt P35968).
T1 construct: purchased Invitrogen
The data set can be described thus: VEGFR-2 enzymatic inhibition assay (Z'-LYTE-Tyr1 Peptide FRET kit). The format is biochemical. Particulars: enzymatic FRET-based assay, 10 μM ATP; four separate determinations.

Data set [1] has as its system HUVECs. The data set can be described thus: MTS toxicity (cell viability) assay in HUVECs. The following applies: 24 h, control 2.33 ± 0.06 O.D., mean ± SEM. The format is cell-based, human. As for the experimental part:
(§1) Human umbilical vein endothelial cells (HUVECs) were obtained from the ScienceCell Research Labs (San Diego, CA, USA), HUVECs were seeded on plates coated with 0.2% gelatin (Sigma-Aldrich, Sintra, Portugal) and cultured in M199 medium (Sigma-Aldrich, Sintra, Portugal) supplemented with 20% fetal bovine serum (FBS) (Invitrogen Life Technologies, Scotland, UK), 1% penicillin/streptomycin (Invitrogen Life Technologies), 0.01% heparin (Sigma-Aldrich), and […] endothelial cell growth supplement (Biomedical Technologies Inc., MA, USA) and maintained at 37°C in a humidified 5% carbon dioxide atmosphere. Cells were kept between passages 3 and 8 for every experiment. The test compounds were dissolved in DMSO and added to cell cultures at a concentration of 0.1–10 μM. Incubations were performed for 24 h in medium supplemented with 2% FBS, 1% penicillin/streptomycin, and 60 ng/mL of the vascular endothelial growth factor (Sigma-Aldrich, Sintra, Portugal). Control cells were incubated with vehicle (DMSO at 0.1% in every culture).
HUVECs (2 × 10^5 cells/mL) were allowed to grow for 24 h and then incubated with the test compounds at a range concentration between 0.1 and 10 μM or control (0.1% DMSO) for 24 h. After the incubation period, cells were washed and their viability was assessed using Cell Titer 96 Aqueous ONE Solution Reagent MTS [3-(4,5-dimethylthiazol-2-yl)-5-(3-carboxymethoxyphenyl)-2-(4-sulfophenyl)-2H-tetrazolium] colorimetric assay (Promega, Madison, USA), according to the instructions provided by the manufacturer and as previously described. Optical density was measured at 492 nm. Three independent experiments were performed, and the results were expressed as mean ± SEM.

The subject of data set [2] is HUVECs. The data set can be described thus: TUNEL cell apoptosis assay in HUVECs. The following applies: 24 h; for Effect on apoptosis (TUNEL): 0.1, 0.5 and 1 μM, statistical significance only for 2a at the highest concentration. The format is cell-based, human. On the procedure:
as §1
HUVECs (6 × 10^4 cells/mL) were grown for 24 h on glass coverslips and incubated with different concentrations (0.1–1 μM) of the tested compounds. TUNEL assay was performed using the In Situ Cell Death Detection kit (Roche Diagnostics, Mannheim, Germany), according to the manufacturer's instruction and as previously reported. Immunofluorescence was visualized under a fluorescence microscope (Olympus, BH-2, UK). The percentage of stained cells was evaluated by counting the cells stained with TUNEL (apoptotic cells) divided by the total number of nuclei counterstained with DAPI (Invitrogen, CA, USA) at a 200x magnification field. One thousand nuclei were evaluated. Results were expressed as percentage of control (100%).

The subject of data set [3] is phosphorylated (activated) VEGFR-2. The data set can be described thus: Western blotting of phosphorylated (active) and total VEGFR-2 in HUVECs. The format is cell-based, human. Particulars: 1 μM, normalized with total VEGFR-2. As for the experimental part: as §1
Proteins were isolated from HUVEC lysates using RIPA (Chemicon International, CA, USA). Proteins were quantified using a spectrophotometer (Jenway, 6405 UV/vis, Essex, UK), and 20 μg of protein were subjected to 8% SDS-PAGE with a 5% stacking gel. After electrophoresis, proteins were blotted into a Hybond nitrocellulose membrane (Amersham, Arlington, VA, USA). Immunodetection for total VEGFR-2 (1 : 1000; Cell Signaling, MA, USA), phosphorylated (activated) VEGFR-2 (1 : 750; Santa Cruz Biotechnology, CA, USA), and β-actin (1 : 3000; Abcam, Cambridge, UK) was accomplished with enhanced chemiluminescence (ECL kit, Amersham, Arlington, USA). […] The relative intensity of each protein blotting analysis was measured using a computerized software program (Bio-Rad, CA, USA), and the expression of activated and total VEGFR-2 were normalized with total VEGFR-2 and β-actin bands, respectively, to compare the expression of proteins in different treatment groups.

T1 sequence (P35968 834-1162 limits assumed): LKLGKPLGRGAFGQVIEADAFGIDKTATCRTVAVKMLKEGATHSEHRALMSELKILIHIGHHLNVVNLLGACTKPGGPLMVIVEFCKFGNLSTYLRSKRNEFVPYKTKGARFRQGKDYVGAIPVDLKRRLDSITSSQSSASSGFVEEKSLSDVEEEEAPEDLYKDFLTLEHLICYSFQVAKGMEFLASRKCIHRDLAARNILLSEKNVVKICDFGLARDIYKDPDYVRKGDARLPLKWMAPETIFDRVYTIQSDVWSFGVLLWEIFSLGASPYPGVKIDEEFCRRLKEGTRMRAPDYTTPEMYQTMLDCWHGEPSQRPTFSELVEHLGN

In the case of `O=C(Nc1ccccc1)Nc1ccc(Oc2ncnc3ccsc23)cc1` [Compound 2a, 1-Phenyl-3-[4-(thieno[3,2-d]pyrimidin-4-yloxy)phenyl]urea], the concentration for half-maximal inhibition (IC50) against VEGFR-2 was 0.199 µM. In addition, the figures for the “Viability of HUVEC (MTS optical density)” value in the data set with HUVECs [1] (5.0 μM) and in the data set with HUVECs [1] (10 μM) were 2.00 ± 0.06 O.D and 1.99 ± 0.03 O.D, respectively. Further, the “Effect on apoptosis (TUNEL)” value in the data set with HUVECs [2] is reported as “increase in apoptosis”. Besides, the “Increase in apoptosis (TUNEL) comparing with untreated cells” value in the data set with HUVECs [2] (highest concentration tested (1 μM)) worked out at 32.8 ± 1.23%. In data set [3], the “Formation of the active (phosphorylated) form of VEGFR-2” value (“Formation of the active” below) is listed as “significantly decrease”.
The compound `COc1ccc(NC(=O)Nc2ccc(Oc3ncnc4ccsc34)cc2)cc1` [Compound 2b, 1-(4-Methoxyphenyl)-3-[4-(thieno[3,2-d]pyrimidin-4-yloxy)phenyl]urea] had an IC50 at VEGFR-2 of 0.188 µM. The “Viability of HUVEC (MTS optical density)” value in the data set with HUVECs [1] (5.0 μM) amounted to 1.84 ± 0.05 O.D; with HUVECs [1] (10 μM), 1.82 ± 0.04 O.D. Besides, in the data set on HUVECs [2], the “Effect on apoptosis (TUNEL)” value is “increase in apoptosis”. In addition, in data set [3], the “Formation of the active” value is given as “significantly decrease”.
Compound `N#Cc1ccc(NC(=O)Nc2ccc(Oc3ncnc4ccsc34)cc2)cc1` [Compound 2c, 1-(4-Cyanophenyl)-3-[4-(thieno[3,2-d]pyrimidin-4-yloxy)phenyl]urea] gave an IC50 against VEGFR-2 of 0.15 µM. In addition, the “Viability of HUVEC (MTS optical density)” value in the data set with HUVECs [1] (10 μM) stood at 1.96 ± 0.02 O.D. Also, the “Effect on apoptosis (TUNEL)” value with HUVECs [2] is listed as “increase in apoptosis”. Further, in data set [3], the “Formation of the active” value is “did not significantly inhibit”.
As to `Cc1csc2c(Oc3ccc(NC(=O)Nc4ccccc4)cc3)ncnc12` [Compound 2d, 1-Phenyl-3-[4-(7-Methylthieno[3,2-d]pyrimidin-4-yloxy)phenyl]urea], the melting point lay within 285.7 to 287.3 °C. The half-maximal inhibitory concentration (IC50) on VEGFR-2 is over 100 µM.
`COc1ccc(NC(=O)Nc2ccc(Oc3ncnc4c(C)csc34)cc2)cc1` [Compound 2e, 1-(4-Methoxyphenyl)-3-[4-(7-methylthieno[3,2-d]pyrimidin-4-yloxy)phenyl]urea] registered a melting point of 248.4 to 249.6 °C. Moreover, the concentration for half-maximal inhibition (IC50) against VEGFR-2 is over 100 µM.
For `Cc1csc2c(Oc3ccc(NC(=O)Nc4ccc(C#N)cc4)cc3)ncnc12` [Compound 2f, 1-(4-Cyanophenyl)-3-[4-(7-methylthieno[3,2-d]pyrimidin-4-yloxy)phenyl]urea], at VEGFR-2, the IC50 is over 100 µM.

By IC50 is commonly meant the concentration that inhibits the measured activity by half. Read a low IC50 as higher potency. As a reminder, the melting point is the temperature of the solid-liquid transition.
